The values below come from ChEMBL document CHEMBL2074124, “A transfected cell model for the renal toxin transporter, rOCT2” (Toxicol Sci, 1999).

The target in data set [1] is T1, Solute carrier family 22 member 2 (Rattus norvegicus, UniProt Q9R0W2).
T1 sequence (Q9R0W2 whole entry): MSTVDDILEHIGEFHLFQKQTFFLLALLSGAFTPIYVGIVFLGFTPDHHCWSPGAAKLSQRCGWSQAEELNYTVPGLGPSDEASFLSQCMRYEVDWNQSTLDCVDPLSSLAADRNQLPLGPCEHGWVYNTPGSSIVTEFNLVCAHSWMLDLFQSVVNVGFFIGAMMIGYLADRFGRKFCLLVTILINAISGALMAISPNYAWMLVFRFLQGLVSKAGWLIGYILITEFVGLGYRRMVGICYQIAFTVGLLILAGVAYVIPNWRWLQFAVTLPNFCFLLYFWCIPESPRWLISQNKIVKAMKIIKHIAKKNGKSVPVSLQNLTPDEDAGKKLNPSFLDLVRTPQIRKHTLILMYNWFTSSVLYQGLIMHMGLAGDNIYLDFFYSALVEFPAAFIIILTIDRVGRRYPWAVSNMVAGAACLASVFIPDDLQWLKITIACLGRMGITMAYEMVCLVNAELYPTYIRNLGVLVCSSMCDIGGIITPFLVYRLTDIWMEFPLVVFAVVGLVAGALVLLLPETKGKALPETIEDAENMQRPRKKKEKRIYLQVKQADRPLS
Kind of data set: TP_TRANSPORTER: uptake (apical to cell) in OCT2-expressing NIH3T3 cells. Particulars: mouse. The format is functional, cell-based.

In data set [2] the target is T1, Solute carrier family 22 member 2. Nature of the data set: TP_TRANSPORTER: inhibition of TEA uptake (apical to cell) in OCT2-expressing NIH3T3 cells. The format is functional, cell-based.
Substrate in data set [3]: CC[N+](CC)(CC)CC
Kind of data set: cells, lysate or membranes named.

`COc1cccc2c1C(=O)c1c(O)c3c(c(O)c1C2=O)C[C@@](O)(C(C)=O)C[C@@H]3O[C@H]1C[C@H](N)[C@H](O)[C@H](C)O1` [DAUNORUBICIN]: the Activity entry in data set [1] is “substrate [+]”. `CN/C(=N/CCSCc1nc[nH]c1C)NC#N` [CIMETIDINE]: the Ki – broadly, a dissociation constant, usually derived from enzyme kinetics or from competition with a known ligand – in data set [2] was determined as 198 µM. In data set [2], `CC[n+]1c(CC2C=C(C)N=C(c3ccccc3)N2C)ccc2ccccc21` (stereo not given) [Cyanine-863] displayed a Ki of 0.861 µM. In the case of `CC[C@]1(O)C[C@@H]2CN(CCc3c([nH]c4ccccc34)[C@@](C(=O)OC)(c3cc4c(cc3OC)N(C)[C@H]3[C@@](O)(C(=O)OC)[C@H](OC(C)=O)[C@]5(CC)C=CCN6CC[C@]43[C@@H]65)C2)C1` [VINBLASTINE], in data set [1], the Activity result was “substrate [+]”.

B1: Solute carrier family 22 member 2 (Rattus norvegicus) (protein)
chain: MSTVDDILEHIGEFHLFQKQTFFLLALLSGAFTPIYVGIVFLGFTPDHHCWSPGAAKLSQRCGWSQAEELNYTVPGLGPSDEASFLSQCMRYEVDWNQSTLDCVDPLSSLAADRNQLPLGPCEHGWVYNTPGSSIVTEFNLVCAHSWMLDLFQSVVNVGFFIGAMMIGYLADRFGRKFCLLVTILINAISGALMAISPNYAWMLVFRFLQGLVSKAGWLIGYILITEFVGLGYRRMVGICYQIAFTVGLLILAGVAYVIPNWRWLQFAVTLPNFCFLLYFWCIPESPRWLISQNKIVKAMKIIKHIAKKNGKSVPVSLQNLTPDEDAGKKLNPSFLDLVRTPQIRKHTLILMYNWFTSSVLYQGLIMHMGLAGDNIYLDFFYSALVEFPAAFIIILTIDRVGRRYPWAVSNMVAGAACLASVFIPDDLQWLKITIACLGRMGITMAYEMVCLVNAELYPTYIRNLGVLVCSSMCDIGGIITPFLVYRLTDIWMEFPLVVFAVVGLVAGALVLLLPETKGKALPETIEDAENMQRPRKKKEKRIYLQVKQADRPLS
For B1, the Michaelis constant (Km) (usually the substrate concentration at which the rate is half of its maximum) in data set [3] amounted to 141 µM.
